Measurements taken from PubChem BioAssay (NCI).
“And” between values parts separate entries of the source, which are not always exact repeats. Identical values can stand only once.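 48-hour exposure; five concentrations; linearly interpolated endpoints. At the GI50, growth is halved. TGI: total growth inhibition.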

Assays:
Test in all cases: NCI anticancer screen, dose series, 48 h
[1] = test system: HOP-92 NSCLC
[2] = test system: NCI-H460 lung
[3] = test system: A549 NSCLC
[4] = test system: MCF7 breast
[5] = test system: M14 melanoma
[6] = test system: SK-MEL-5 melanoma
[7] = test system: LOX IMVI melanoma
[8] = test system: COLO 205 colon
[9] = test system: SK-OV-3 ovarian
[10] = test system: OVCAR-3 ovarian

Row | Structure (SMILES) | GI50 [1] | TGI [1] | GI50 [2] | TGI [2] | GI50 [3] | TGI [3] | GI50 [4] | TGI [4] | GI50 [5] | TGI [5] | GI50 [6] | TGI [6] | GI50 [7] | TGI [7] | GI50 [8] | TGI [8] | GI50 [9] | TGI [9] | GI50 [10] [µM] | TGI [10]
1 | CC[C@H](C)n1cc(C)c2c(C(=O)NCc3c(C)cc(C)[nH]c3=O)cc(-c3ccc(N4CCNCC4)nc3)cc21 | 6.72 µM and 6.83 µM | 20.9 µM and 21.1 µM | 12.3 µM and 12.5 µM | 24.7 µM and 26 µM | 16.8 µM and 16.3 µM | 32.4 µM and 32.1 µM | 10.4 µM and 6.88 µM | 24.9 µM and 21.8 µM | 9.56 µM and 4.52 µM | 22.5 µM and 14.3 µM | 15.8 µM and 6.13 µM | 29.2 µM and 18 µM | 8.89 µM and 6.3 µM | 21.8 µM and 19.4 µM | 5.25 µM and 2.93 µM | 18.6 µM and 8.85 µM | 19.1 µM and 14.6 µM | 33.5 µM and 28 µM | 14.2 | 27.4 µM and 28.2 µM
2 | COc1cccc(C2C3=C(COC3=O)N(CCO)c3cc4c(cc32)OCCO4)c1 (stereo not drawn) | 0.0348 µM | 2.89 µM | 0.148 µM | 1.19 µM | 0.207 µM | > 50 µM | 0.0396 µM | > 50 µM | 0.052 µM | 0.19 µM | 0.0474 µM | 1.23 µM | 0.288 µM | > 50 µM | 0.108 µM | 0.268 µM | 0.128 µM | 4.28 µM | 0.0878 | 0.254 µM
3 | N#Cc1c(-c2ccccc2)cc(-c2ccccc2)n(CCCCC(=O)NO)c1=O | 2.23 µM | 7.57 µM | 3.71 µM | 15.2 µM | 3.29 µM | 15.7 µM | 1.79 µM | 11 µM | 2.76 µM | 11.6 µM | 1.84 µM | 3.59 µM | 1.71 µM | 3.22 µM | 2.74 µM | 7.76 µM | 2.06 µM | 5 µM | 2.26 | 7.49 µM
4 | COc1ccc(-c2cc(/C=C3\C(=O)Nc4ccc(OC)cc43)[nH]n2)cc1 | > 100 µM | > 100 µM | 5.45 µM | > 100 µM | > 100 µM | > 100 µM | 0.732 µM | > 100 µM | > 100 µM | > 100 µM | 4.46 µM | > 100 µM | 14 µM | > 100 µM | 4.53 µM | > 100 µM | 73.2 µM | > 100 µM | 68.9 | > 100 µM
5 | C[C@H]1CC[C@@H]2[C@@H](C)[C@H]3[C@H](C[C@H]4[C@@H]5CC=C6C[C@@H](O)CC[C@]6(C)[C@H]5C[C@H](O)[C@]34C)N2C1 |  | > 100 µM |  | > 100 µM |  | > 100 µM |  | > 100 µM |  | > 100 µM |  | > 100 µM |  | > 100 µM |  | > 100 µM |  | > 100 µM |  | > 100 µM
6 | O=c1[nH]c(SCc2c(Cl)c(Cl)c(Cl)c(Cl)c2Cl)nc(=S)[nH]1 |  | > 100 µM |  | > 100 µM |  | > 100 µM |  | > 100 µM |  | > 100 µM |  | > 100 µM |  | > 100 µM |  | 33.8 µM |  | > 100 µM |  | 31 µM
7 | N#Cc1cccc(NC(=O)c2oc3ccccc3c2-c2cnn(-c3ccccc3)c2)c1 | 121 µM | > 500 µM | > 500 µM | > 500 µM | > 500 µM | > 500 µM | 209 µM | > 500 µM | > 500 µM | > 500 µM | > 500 µM | > 500 µM | 308 µM | > 500 µM | > 500 µM | > 500 µM | > 500 µM | > 500 µM | > 500 | > 500 µM
8 | CCOC(=O)C1=C(C)NC2SC(=O)/C(=C\c3ccccc3)N2C1c1ccccc1 (stereo not drawn) | > 100 µM | > 100 µM | 93.5 µM | > 100 µM | > 100 µM | > 100 µM | > 100 µM | > 100 µM | > 100 µM | > 100 µM | 16.1 µM | > 100 µM | > 100 µM | > 100 µM | > 100 µM | > 100 µM | > 100 µM | > 100 µM | > 100 | > 100 µM
9 | CCOC(=O)C1=C(C)NC(=O)NC1c1coc2cc(C)cc(C)c2c1=O (stereo not drawn) |  | > 100 µM |  | > 100 µM |  | > 100 µM |  | > 100 µM |  | > 100 µM |  | > 100 µM |  | > 100 µM |  | > 100 µM |  | > 100 µM |  | > 70.5 µM
10 | CCc1c(Cl)nc(Cl)nc1Cl |  | 3 µM |  | 10.4 µM |  | 13.7 µM |  | 0.258 µM |  | 0.99 µM |  | 1.39 µM |  | 1.54 µM |  | 0.284 µM |  | 12.3 µM |  | 0.374 µM
11 | CNc1ccc(-c2cc(=O)oc3ccc(Cl)cc23)cc1 |  | 7.96 µM | 0.0487 µM and 0.0441 µM | > 100 µM | 0.137 µM and 0.0856 µM | > 100 µM | 0.229 µM and 0.151 µM | > 100 µM | 0.0393 µM and 0.0313 µM | > 100 µM | 0.121 µM and 0.0772 µM | 1.11 µM and 2.56 µM | 0.0636 µM and 0.0542 µM | > 100 µM | 0.278 µM and 0.201 µM | 1.17 µM and 1.27 µM | 0.218 µM and 0.107 µM | > 100 µM | 0.0342 | 0.27 µM
12 | COc1cc([C@@H]2c3cc4c(cc3[C@@H](O[C@@H]3O[C@@H]5CO[C@@H](c6cccs6)O[C@H]5[C@H](O)[C@H]3O)[C@H]3COC(=O)[C@H]23)OCO4)cc(OC)c1O |  | 1.99 µM | 0.023 µM | 2.09 µM | 0.0969 µM | 2.56 µM | 0.0491 µM | > 100 µM | 0.267 µM | 2.95 µM | 0.157 µM | 1.33 µM | 0.0969 µM | 2.26 µM | 1.88 µM | 8.94 µM | 0.456 µM | 10.2 µM | 1.42 | 5.45 µM
13 | COc1cc([C@@H]2c3cc4c(cc3[C@H](O)[C@H]3COC(=O)[C@H]23)OCO4)cc(OC)c1OC | < 0.01 µM |  | < 0.005 µM | > 100 µM and 50 µM and > 7.95 µM | < 0.005 µM | > 100 µM and 50 µM | < 0.01 µM | > 100 µM and 10.3 µM | < 0.005 µM |  |  | 0.0477 µM | < 0.01 µM | > 100 µM and 50 µM | < 0.01 µM | < 0.005 µM | < 0.01 µM |  | < 0.005 | 
14 | N#Cc1c(NC(=O)CN2CCOCC2)sc2c1CCCC2 | > 25 µM | > 25 µM | > 25 µM | > 25 µM | > 25 µM | > 25 µM | > 25 µM | > 25 µM | > 25 µM | > 25 µM | > 25 µM | > 25 µM | > 25 µM | > 25 µM | > 25 µM | > 25 µM | > 25 µM | > 25 µM | > 25 | > 25 µM
